Experimental data reported in US20030176314A1, “Compounds for the treatment of pain” (priority 2001, published 2003).

Legend:
[1] = target: T1, human α1B adrenergic receptor (Homo sapiens, UniProt P35368); experiment: Binding at human α1B adrenergic receptor; details: Table 8; read-out: hα1B Ki
T1 construct: host or cells: LM(tk-) cells, line L-α1B
T1 sequence (P35368 1-520): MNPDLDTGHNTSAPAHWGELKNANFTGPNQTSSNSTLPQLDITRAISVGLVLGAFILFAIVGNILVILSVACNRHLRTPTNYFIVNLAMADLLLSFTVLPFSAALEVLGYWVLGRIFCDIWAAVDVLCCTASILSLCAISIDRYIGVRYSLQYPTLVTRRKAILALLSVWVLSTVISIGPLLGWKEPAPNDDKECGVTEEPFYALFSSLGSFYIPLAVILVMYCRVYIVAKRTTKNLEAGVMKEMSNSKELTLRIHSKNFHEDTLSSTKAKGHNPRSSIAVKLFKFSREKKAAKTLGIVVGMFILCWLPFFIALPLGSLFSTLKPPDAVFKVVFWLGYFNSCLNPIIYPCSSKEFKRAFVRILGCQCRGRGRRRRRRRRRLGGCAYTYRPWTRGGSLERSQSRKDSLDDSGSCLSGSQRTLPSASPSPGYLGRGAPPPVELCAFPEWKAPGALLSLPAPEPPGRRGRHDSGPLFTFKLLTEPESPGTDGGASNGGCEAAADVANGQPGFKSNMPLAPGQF
Excerpt: α1 Human Adrenergic Receptors: To determine the binding of compounds to human α1 receptors, LM(tk−) cell lines stably transfected with the genes encoding the α1a, α1b, and α1d receptors were used. The nomenclature describing the α1 receptors was changed recently, such that the receptor formerly designated α1a is now designated α1d, and the receptor formerly designated α1c is now designated α1a. The cell lines expressing these receptors were deposited with the ATCC before the nomenclature change and reflect the subtype designations formerly assigned to these receptors. Thus, the cell line expressing the receptor described herein as the α1a receptor was deposited with the ATCC on Sep. […] The cell line expressing receptor described herein as the α1d receptor was deposited with the ATCC on Sep. […] The cell line expressing the α1b receptor is designated L-α1B, and was deposited on Sep.
(§1) The binding affinity (Ki) of these compounds were tested according to the protocols described herein at the following receptors; human α1A, α1B, α1D, α2A, α2B, and α2C adrenergic receptors; human Y1, Y2, Y4, and Y5 receptors; and N-Methyl-D-aspartic acid (NMDA) receptor channels. The binding interactions of these compounds were additionally tested at the norepinephrine (NE) transporter (NE uptake) and serotonin (5-hydroxytryptamine (5HT)) transporter (5HT uptake) according to protocols described herein

[2] = target: T2, human α2B adrenergic receptor (Homo sapiens, UniProt P18089); experiment: Binding at human α2B adrenergic receptor; details: Table 8; read-out: hα2B Ki
T2 construct: host or cells: LM(tk-) cells, line L-NGC-α2B
T2 sequence (P18089 1-450): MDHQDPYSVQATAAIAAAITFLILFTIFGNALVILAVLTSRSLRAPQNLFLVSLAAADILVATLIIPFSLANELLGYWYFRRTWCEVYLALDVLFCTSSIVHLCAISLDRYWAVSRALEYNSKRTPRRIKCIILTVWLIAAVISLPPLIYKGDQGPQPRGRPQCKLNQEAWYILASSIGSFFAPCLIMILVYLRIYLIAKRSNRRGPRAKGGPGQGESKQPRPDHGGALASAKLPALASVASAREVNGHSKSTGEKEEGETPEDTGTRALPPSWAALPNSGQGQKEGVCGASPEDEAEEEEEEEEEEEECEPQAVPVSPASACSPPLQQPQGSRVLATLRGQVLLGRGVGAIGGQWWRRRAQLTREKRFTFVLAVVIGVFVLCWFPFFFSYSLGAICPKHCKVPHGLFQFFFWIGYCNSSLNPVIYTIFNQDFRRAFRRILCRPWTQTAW
Excerpt: (§2) α2 Human Adrenergic Receptors: To determine the binding of compounds to human α2 receptors, LM(tk−) cell lines stably transfected with the genes encoding the α2A, α2B, and α2C receptors were used. The cell line expressing the α2A receptor is designated L-α2A, and was deposited on Nov. 6, 1992, under ATCC Accession No. CRL 11180. The cell line expressing the α2B receptor is designated L-NGC-α2B, and was deposited on Oct. 25, 1989, under ATCC Accession No. CRL 10275. The cell line expressing the α2C receptor is designated L-α2C, and was deposited on Nov. 6, 1992, under ATCC Accession No. CRL-11181. Cell lysates were prepared as described herin, and suspended in 25 mM glycyiglycine buffer (pH 7.6 at room temperature). Equilibrium competition binding assay were performed using […] (0.5 nM), and nonspecific binding was determined by incubation with 10 μM phentolamine. The bound radioligand was separated by filtration through GF/B filters using a cell harvester.
as §1

[3] = target: T3, human α2A adrenergic receptor (Homo sapiens, UniProt P08913); experiment: Binding at human α2A adrenergic receptor; details: Table 8; read-out: hα2A Ki
T3 construct: host or cells: LM(tk-) cells, line L-α2A
T3 sequence (P08913 1-465): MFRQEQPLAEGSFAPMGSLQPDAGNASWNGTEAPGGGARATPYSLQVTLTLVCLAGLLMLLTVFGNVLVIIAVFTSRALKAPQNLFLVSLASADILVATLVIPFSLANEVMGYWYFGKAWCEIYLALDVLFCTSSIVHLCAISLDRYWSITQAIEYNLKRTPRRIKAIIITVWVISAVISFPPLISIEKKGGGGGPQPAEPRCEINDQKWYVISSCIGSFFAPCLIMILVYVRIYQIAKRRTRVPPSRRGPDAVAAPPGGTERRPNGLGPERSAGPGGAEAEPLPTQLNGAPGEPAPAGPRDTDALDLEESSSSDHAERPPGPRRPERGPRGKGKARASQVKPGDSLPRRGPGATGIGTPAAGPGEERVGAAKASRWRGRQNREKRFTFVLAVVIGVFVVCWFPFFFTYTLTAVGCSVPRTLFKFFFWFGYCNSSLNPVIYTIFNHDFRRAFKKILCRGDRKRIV
Excerpt: as §2, §1

Row | SMILES | Ki [1] | Ki [2] | Ki [3]
1 | Cc1nc(NC(=N)N)nc2ccc3ccccc3c12 [Compound 1007A] | 3.04 µM | – | –
2 | Cc1cc(NC(=N)N)nc2ccc(Cl)cc12 [Compound 4005A, N-(6-chloro-4-methyl-2-quinolinyl)guanidine] | – | 3.75 µM | 0.199 µM
